Results as given in patent US20260041744A1, “Methods for Treating Pompe Disease” (Amicus Therapeutics, Inc., priority 2022, published 2026).

Key:
Gaa KO mice = experiment: Tissue glycogen content in Gaa KO mice (amyloglucosidase digestion); type: in vivo, mouse; details: 20 mg/kg ATB200 IV + 10 mg/kg miglustat PO, 6 biweekly administrations
Method: The therapeutic effects of ATB200 and miglustat were evaluated and compared against those of Alglucosidase alfa in Gaa KO mice. For the study, male Gaa KO (3-to 4-month old) and age-matched wild-type (WT) mice were used. Alglucosidase alfa was administered via bolus tail vein intravenous (IV) injection. In the co-administration regimen, miglustat was administered via oral gavage (PO) 30 minutes prior to the IV injection of ATB200. Treatment was given biweekly. Treated mice were sacrificed after 14 days from the last administration and various tissues were collected for further analysis. Table 11 summarizes the study design:
Tissue glycogen content in tissues samples was determined using amyloglucosidase digestion, as discussed above.

[1] = system: adult subjects with late-onset Pompe disease (LOPD); experiment: Study ATB200-03: SGIC, PGIC and additional PROs (PROMIS-dyspnea, PROMIS-upper extremity, R-PAct, EQ-5D-5L); type: in vivo, human; details: week 52
Excerpt: Additional PROs included PROMIS-dyspnea, PROMIS-upper extremity, R-PACT, EQ-5D-5L, SGIC. The PGIC was also included.
Across all of these domains a greater percentage of patients in the overall population treated with cipaglucosidase alfa/miglustat reported improvement, and a lower percentage reported worsening, compared with patients treated with alglucosidase alfa. […] Results are shown below for the SGIC overall physical well-domain, which is representative of the benefits reported across these measures (FIG. 86).

[2] = system: adults with Pompe disease; experiment: Study ATB200-02: GSGC, 10MWT, TUG; type: in vivo, human
Excerpt: The study design includes 4 stages and 4 cohorts, with Stages 1 and 2 only for Cohort 1 and Stages 3 and 4 for all 4 cohorts (FIG. 79).
The 4 cohorts in the study are as follows: • Cohort 1: ERT-experienced (2 to 6 years) ambulatory subjects (11 subjects) • Cohort 2: ERT-experienced (≥2 years) non-ambulatory subjects (6 subjects) • Cohort 3: ERT-naïve ambulatory subjects (6 subjects)· • Cohort 4: ERT-experienced (≥7 years) ambulatory subjects (6 subjects)

Pompe disease patients = experiment: Cross-study comparison of long-term effects on 6MWD and FVC (Example 12); type: in vivo, human; details: ERT-experienced patients
Excerpt: FIG. 53A-FIG. 53B show the 6-minute walk test (6MWT) percentage predicted during treatment with alglucosidase alfa. […] The data from year 2 onward show the decline expected in ERT-experienced patients remaining on alglucosidase alfa.

[3] = system: adult subjects with late-onset Pompe disease (LOPD); experiment: Study ATB200-03 (PROPEL): MMT lower extremity score; type: in vivo, human; details: for CHG to Week 52 in MMT lower extremity score, LS Mean: MMRM, actual time point of assessments; for MMT lower extremity score CHG, LS means (SE): Week 52, ANCOVA
Method: (§1) The test for the primary endpoint was conducted first at the 1-sided 0.025 significance level, and if significant, the ordered key secondary endpoints were similarly tested at the same significance level. The statistical significance of the key secondary endpoints was interpreted following a hierarchical testing order, each at the 1-sided alpha level of 0.025. […] Primary analyses of efficacy were performed using the mixed-effect model for repeated measures (MMRM) for 6MWD in Intent-to-treat Observed Population (ITT) that includes all available, observed data without any missing data imputation (ITT-OBS) and analysis of covariance (ANCOVA) for all other endpoints in the Intent-to-Treat-Last Observation Carried Forward (ITT-LOCF) Population. A nonparametric randomization based ANCOVA was specified as the first sensitivity analysis for 6MWD and FVC. […] For the purposes of data presentation in this document, 2-sided p-values are reported hereafter, except as otherwise noted.

[4] = system: adult subjects with late-onset Pompe disease (LOPD); experiment: Study ATB200-03 (PROPEL): PROMIS-Fatigue; type: in vivo, human; details: for CHG to Week 52 in PROMIS-Fatigue total score, LS Mean: MMRM, actual time point of assessments, decrease indicates improvement; for PROMIS-Fatigue Short Form 8a total score CHG, LS means (SE): Week 52, ANCOVA
Method: as §1

[5] = Ambulatory ERT-experienced, 12 months
[6] = Ambulatory ERT-experienced, 24 months
[7] = Ambulatory ERT-experienced, 36 months
[8] = Ambulatory ERT-experienced, 48 months
[9] = Ambulatory ERT-naïve, 12 months
[10] = Ambulatory ERT-naïve, 24 months
[11] = Ambulatory ERT-naïve, 36 months
[12] = Ambulatory ERT-naïve, 48 months
[13] = Baseline, ITT, ERT-naïve Population excluding Subject 4005-2511
[14] = ERT-naïve excluding Subject 4005-2511
[15] = ITT-LOCF, ERT-naïve Population excluding Subject 4005-2511
[16] = ITT-OBS excluding Subject 4005-2511 (overall)
[17] = ITT-OBS excluding Subject 4005-2511, ERT-naïve Subjects
[18] = ITT-OBS, ERT-experienced Subjects
[19] = Week 52-LOCF, ERT-experienced Population
[20] = Week 52-LOCF, ERT-naïve Population excluding Subject 4005-2511
[21] = Week 52-LOCF, ITT excluding Subject 4005-2511
[22] = ITT-LOCF excluding Subject 4005-2511
[23] = ITT-LOCF, ERT-experienced Population

Substance: ATB200/miglustat: two-component therapy: cipaglucosidase alfa (ATB200) administered in conjunction with miglustat (AT2221), a stabilizer of cipaglucosidase alfa
- tissue glycogen content vs alglucosidase alfa (Gaa KO mice): significantly decreased the glycogen content in four different tissues (quadriceps, triceps, gastrocnemius, and heart) as compared to the same dosage of alglucosidase alfa
- SGIC and PGIC outcome [1]: SGIC and PGIC showed consistently greater improvement favoring cipaglucosidase alfa/miglustat treatment
- 10-Meter Walk Test, CFBL mean [2, 5]: −0.1 seconds
- Gait, Stairs, Gowers, and Chair, CFBL mean [2, 5]: −1.3
- Timed Up and Go, CFBL mean [2, 5]: -1.5 s
- 10-Meter Walk Test, CFBL mean [2, 6]: 1.0 seconds
- Gait, Stairs, Gowers, and Chair, CFBL mean [2, 6]: −1.6
- Timed Up and Go, CFBL mean [2, 6]: 0.1 s
- 10-Meter Walk Test, CFBL mean [2, 7]: 3.9 seconds
- Gait, Stairs, Gowers, and Chair, CFBL mean [2, 7]: −1.1
- Timed Up and Go, CFBL mean [2, 7]: -1.5 s
- 10-Meter Walk Test, CFBL mean [2, 8]: 0.6 seconds
- Gait, Stairs, Gowers, and Chair, CFBL mean [2, 8]: −1.0
- Timed Up and Go, CFBL mean [2, 8]: -0.6 s
- 10-Meter Walk Test, CFBL mean [2, 9]: −0.9 seconds
- Gait, Stairs, Gowers, and Chair, CFBL mean [2, 9]: −0.8
- Timed Up and Go, CFBL mean [2, 9]: -0.7 s
- 10-Meter Walk Test, CFBL mean [2, 10]: −0.5 seconds
- Gait, Stairs, Gowers, and Chair, CFBL mean [2, 10]: −1.7
- Timed Up and Go, CFBL mean [2, 10]: -1.0 s
- 10-Meter Walk Test, CFBL mean [2, 11]: 0.1 seconds
- Gait, Stairs, Gowers, and Chair, CFBL mean [2, 11]: −2.0
- Timed Up and Go, CFBL mean [2, 11]: 0.5 s
- 10-Meter Walk Test, CFBL mean [2, 12]: 0.7 seconds
- Gait, Stairs, Gowers, and Chair, CFBL mean [2, 12]: −2.4
- Timed Up and Go, CFBL mean [2, 12]: 0.3 s
- GSGC CFB, mean ([2]; Cohort 1 + Cohort 3 + Cohort 4, 24-mo): −1.7
- GSGC CFB, mean ([2]; Cohort 1 + Cohort 3 + Cohort 4, 48-mo): −1.5
- GSGC CFB, mean ([2]; Cohort 1 + Cohort 4 (ERT-experienced), 24-mo, negative = improvement): −1.6
- GSGC CFB, mean ([2]; Cohort 1 + Cohort 4 (ERT-experienced), 48-mo): −1.0
- GSGC CFB, mean ([2]; Cohort 3 (ERT-naïve), 24-mo): −1.7
- GSGC CFB, mean ([2]; Cohort 3 (ERT-naïve), 48-mo): −2.4
- other measures of motor function incl. 10MWT, GSGC, TUG ([2]; ERT-experienced and ERT-naïve ambulatory subjects): improvements in other measures of motor function
- long-term motor function by 6MWD after switching from alglucosidase alfa (Pompe disease patients): progressive gains in motor function as assessed by 6MWD
- long-term pulmonary function by FVC after switching from alglucosidase alfa (Pompe disease patients): stability in pulmonary function as assessed by FVC

Substance: alglucosidase alfa [reference compound]
- MMT Lower Extremity Score Absolute Value, Mean [3, 13]: 33.57
- MMT lower extremity score Absolute Value, Median [3, 13]: 32.00
- mean (SD) change in MMT lower extremity score from baseline to Week 52 ([3]; ERT-experienced Population): 0.9 (2.81)
- mean (SD) change in MMT lower extremity score from baseline to Week 52 [3, 14]: 1.0 (1.53)
- Change in MMT lower extremity score baseline to Week 52, LS means (SE) from ANCOVA [3, 15]: 0.69 (1.013)
- CHG to Week 52 in MMT lower extremity score, LS Mean [3, 16]: 0.7
- CHG to Week 52 in MMT lower extremity score, LS Mean [3, 17]: −0.0
- CHG to Week 52 in MMT lower extremity score, LS Mean [3, 18]: 0.9
- MMT lower extremity score Absolute Value, Mean (SD) [3, 19]: 26.96 (6.802)
- MMT lower extremity score Absolute Value, Median [3, 19]: 28.00
- MMT lower extremity score CHG, Mean (SD) [3, 19]: 0.85 (2.811)
- MMT lower extremity score CHG, Median [3, 19]: 1.00
- MMT Lower Extremity Score Absolute Value, Mean [3, 20]: 34.57
- MMT Lower Extremity Score CHG (change from baseline), Mean [3, 20]: 1.00
- MMT Lower Extremity Score CHG (change from baseline), Median [3, 20]: 2.00
- MMT lower extremity score Absolute Value, Median [3, 20]: 34.00
- MMT lower extremity score Absolute Value, Mean (SD) [3, 21]: 28.53 (6.999)
- MMT lower extremity score Absolute Value, Median [3, 21]: 29.00
- MMT lower extremity score CHG, Mean (SD) [3, 21]: 0.88 (2.579)
- MMT lower extremity score CHG, Median [3, 21]: 1.00
- MMT lower extremity score CHG, LS means (SE) [3, 22]: 0.68 (0.603)
- MMT lower extremity score CHG, LS means (SE) [3, 23]: 0.90 (0.735)
- mean (SD) change in MMT lower extremity score from baseline to Week 52 ([3]; overall population): 0.9 (2.58)
- PROMIS-Fatigue Short Form 8a Total Score Absolute Value, Median [4, 13]: 24.00
- PROMIS-Fatigue Short Form 8a Total Score Absolute Value, Mean ([4]; Baseline, ITT, ERT-naïve Population excluding Subject 4005-2511, score 8 to 40, lower = less fatigue): 24.13
- mean (SD) change in PROMIS-Fatigue total score from baseline to Week 52 ([4]; ERT-experienced Population): −0.5 (5.72)
- mean (SD) change in PROMIS-Fatigue total score from baseline to Week 52 [4, 14]: −5.4 (6.61)
- Change in PROMIS-Fatigue total score baseline to Week 52, LS means (SE) from ANCOVA [4, 15]: −6.28 (2.757)
- CHG to Week 52 in PROMIS-Fatigue total score, LS Mean [4, 16]: −1.7
- CHG to Week 52 in PROMIS-Fatigue total score, LS Mean [4, 17]: −4.9
- CHG to Week 52 in PROMIS-Fatigue total score, LS Mean [4, 18]: −0.7
- PROMIS-Fatigue Short Form 8a Total Score Absolute Value, Mean [4, 19]: 19.87
- PROMIS-Fatigue Short Form 8a Total Score Absolute Value, Median [4, 19]: 18.00
- PROMIS-Fatigue Short Form 8a Total Score CHG, Mean [4, 19]: −0.50
- PROMIS-Fatigue Short Form 8a total score CHG, Median [4, 19]: 0.50
- PROMIS-Fatigue Short Form 8a Total Score Absolute Value, Mean [4, 20]: 16.43
- PROMIS-Fatigue Short Form 8a Total Score Absolute Value, Median [4, 20]: 15.00
- PROMIS-Fatigue Short Form 8a Total Score CHG (change from baseline), Mean [4, 20]: −7.70
- PROMIS-Fatigue Short Form 8a Total Score CHG (change from baseline), Median [4, 20]: −6.90
- PROMIS-Fatigue Short Form 8a Total Score Absolute Value, Median [4, 21]: 18.00
- PROMIS-Fatigue Short Form 8a total score Absolute Value, Mean (SD) [4, 21]: 19.41 (6.735)
- PROMIS-Fatigue Short Form 8a total score CHG, Mean (SD) [4, 21]: −1.67 (6.623)
- PROMIS-Fatigue Short Form 8a total score CHG, Median [4, 21]: −1.00
- PROMIS-Fatigue Short Form 8a total score CHG, LS means (SE) [4, 22]: −1.94 (0.901)
- PROMIS-Fatigue Short Form 8a total score CHG, LS means (SE) [4, 23]: −0.79 (0.953)
- mean (SD) change in PROMIS-Fatigue total score from baseline to Week 52 ([4]; overall population): -1.9 (0.90)
